Results on 55 compounds are retold here after patent US5116858A, “4-imidazoline derivatives” (Mitsubishi Kasei Corporation, priority 1989, dated 1992).

As a reminder, the IC50 is the concentration at which inhibition is half-maximal.

Molecules are shown by their SMILES.

The test system of assay [1] is peroxidized lipid in rat brain homogenate. Briefly: Lipoperoxidation inhibitory activity in brain homogenate (TBA method). The assay is classed as biochemical, Wistar male rats. As to conditions: 30 minutes at 37° C., final conc. 0.3-100 μM, read-out: Anti-lipoperoxidation Activity IC50. How it is done:
Brain homogenate was prepared using Wistar male rats in accordance with the following procedure. […] A polyethylene tube was inserted into the aorta through the left ventricle, and fixed. Brain perfusion was conducted using ice-cooled 50 mM phosphate buffered saline (PBS), pH 7.4, through the tube, and whole brain was extracted. After removal of the cerebellum, the cerebrum was weighed while wet and homogenated by a Teflon homogenizer under ice-cooling, after addition of nine-fold by weight of PBS. The resultant homogenate was centrifuged at 4° C. (2200 r.p.m., 10 minutes), and an aliquot of the supernatant (0.3 ml) was placed in a light-resistant test tube with ground stopper and used for the following test.
To the brain homogenate obtained above were added PBS (0.6 ml) and an ethanol solution (10 μl) containing a predetermined amount of a test compound. Thus, each of the ethanol solutions was prepared so that the final concentration of the compound was 0.3-100 μM. The mixture was allowed to warm for 30 minutes at 37° C. (external bath temperature). […] (2600 r.p.m., 10 minutes). The resultant supernatant was used in the following quantitative analysis.
The aqueous mixture was heated in a boiling-water bath for 60 minutes and cooled rapidly. Distilled water (1.0 ml) and a mixture of pyridine and butanol (1:15) (5.0 ml) were added to the cooled mixture, and the latter was shaken for 30 seconds and centrifuged (3000 r.p.m., 10 minutes). The supernatant was used as a test sample for quantitative analysis of peroxidized lipid as mentioned below.

A further assay has as its system mice. Briefly: Passive avoidance response test (memory-improving activity, cycloheximide-treated mice). The class given is in vivo. The settings on record: Mus musculus; oral, 15 mice per group, cycloheximide 120 mg/kg s.c., latent time; read-out: Memory-Improving Activity, Minimum Effective Dose. How it is done: Passive avoidance response test was conducted in mice (15 animals per group) using light-dark differential apparatus of step-down type. The apparatus consisted of a dark room made of black and rigid vinylidene chloride resin [30 cm (depth)×30 cm (width)×31 cm (height)] and a light room, as an adjacent room, made of transparent rigid vinylidene chloride resin. The floor of the light room was set 2 cm higher than the grid surface of the dark room (step down type), and there was a guillotine door between the rooms. The animals were placed in the apparatus and acclimatized before test, and latent time for moving from the light room to the dark room was determined.
The acclimatized animals subcutaneously received 120 mg/kg of cycloheximide (Sigma) dissolved in physiological saline. After 30 minutes of the administration, the animals were placed in the light room. Immediatly after the movement of the animals to the dark room, electric current was applied on the grid (0.5 mA, 3 seconds), which gave the animals "aquired behavior". After 24 hours of the establishment of the aquired behavior, a test compound suspended in 1% tragacanth was administered orally to the animals, which were then returned to the light room. Control animals received only 1% tragacanth. The latent time until an individual animal started to move to the dark room was determined.

Regarding `COc1ccc(-c2c(C)[nH]c(=O)n2C)cc1` [Compound A, reference compound], in assay [1], the concentration for half-maximal inhibition (IC50) stood at 147 µM. Turning to `CCCCn1c(-c2ccccc2)c(C)[nH]c1=O` [Compound B, reference compound], the IC50 in assay [1] is above 100 µM.

On to `CCCCCCc1ccc(-c2c(C)[nH]c(=O)n2C)cc1` [Compound No. 1, 1,4-Dimethyl-5-(4'-n-hexylphenyl)-4-imidazolin-2-one], for which, in assay [1], the concentration for half-maximal inhibition (IC50) was determined as 9 µM. Also, in the assay on mice, the minimal effective dose came to 0.3 mg/kg. On to `CCCc1ccc(-c2c(C)[nH]c(=O)n2C)cc1` [Compound No. 7], for which, in assay [1], the IC50 turned out to be 21.5 µM. On the same count and under the same terms, with `Cc1[nH]c(=O)n(C)c1-c1ccc(C(C)(C)C)cc1` [Compound No. 9] the figure was 8.4 µM. Consider `CCCCCCCCCCc1ccc(-c2c(C)[nH]c(=O)n2C)cc1` [Compound No. 12], for which, in assay [1], the IC50 stood at 7.9 µM. Moreover, the minimal effective dose with mice was 0.3 mg/kg. As to `CCCCCCCCCCCCc1ccc(-c2c(C)[nH]c(=O)n2C)cc1` [Compound No. 13], the 50% inhibitory concentration (IC50) in assay [1] amounted to 13 µM. Further, in the assay with mice, the minimal effective dose was 3 mg/kg. Take `Cc1[nH]c(=O)n(C)c1-c1ccc(OCCC(C)C)cc1` [Compound No. 20]: in assay [1], the half-inhibitory concentration (IC50) came out at 6.6 µM. For `CCCCCCOc1ccc(-c2c(C)[nH]c(=O)n2C)cc1` [Compound No. 21], the concentration for half-maximal inhibition (IC50) in assay [1] came out at 7.3 µM.

`Cc1[nH]c(=O)n(C(C)C)c1-c1ccc(C2CCCCC2)cc1` [Compound No. 77, 5-(4'-Cyclohexylphenyl)-1-isopropyl-4-methyl-4-imidazolin-2-one]: the half-maximal inhibitory concentration (IC50) in assay [1] came out at 8.3 µM. Further, the minimal effective dose in the assay with mice amounted to 0.1 mg/kg. Taken in the same sequence, the figures for `Cc1[nH]c(=O)n(C2CCCCC2)c1-c1ccc(-c2ccccc2)cc1` [Compound No. 93, 1-Cyclohexyl-5-(4-biphenyl)-4-methyl-4-imidazolin-2-one] were 10.9 µM and 0.1 mg/kg. Taken in the same sequence, the figures for `CCCCCCCCCCOc1ccc(-c2c(C)[nH]c(=O)n2C2CCCCC2)cc1` [Compound No. 122, 1-cyclohexyl-5-(4'-decyloxyphenyl)-4-methyl-4-imidazolin-2-one] were 10.5 µM and 0.1 mg/kg. With `Cc1[nH]c(=O)n(C2CCCCC2)c1-c1ccc(Oc2ccccc2)cc1` [Compound No. 123, 1-Cyclohexyl-4-methyl-5-(4'-phenoxyphenyl)-4-imidazolin-2-one], in assay [1], the half-inhibitory concentration (IC50) stood at 7.9 µM. Besides, the minimal effective dose in the assay with mice is 0.1 mg/kg.

Consider `Cc1[nH]c(=O)n(C2CCCCC2)c1-c1ccc(OCc2ccccc2)cc1` [Compound No. 124, 5-(4'-Benzyloxyphenyl)-1-cyclohexyl-4-methyl-4-imidazolin-2-one], for which the IC50 in assay [1] stood at 8.3 µM. Besides, in the assay with mice, the minimal effective dose stood at 0.1 mg/kg. For `COC1=C(OC)C(=O)C(CCCCCCCCCCO)=C(C)C1=O` [Idebenone, reference compound], the IC50 in assay [1] is 17.2 µM.

`CCCCc1ccc(-c2c(CC)[nH]c(=O)n2C)cc1` [compound 3]: the IC50 in assay [1] was 13.9 µM. Turning to `Cc1[nH]c(=O)n(C)c1-c1ccc(CC(C)C)cc1` [compound 5], the IC50 in assay [1] is 7.8 µM. Also, the minimal effective dose with mice turned out to be 30 mg/kg. Regarding `CCCCCc1ccc(-c2c(C)[nH]c(=O)n2C)cc1` [compound 6], the IC50 in assay [1] amounted to 5.9 µM. Turning to `CCCCCCCc1ccc(-c2c(C)[nH]c(=O)n2C)cc1` [compound 10], the half-inhibitory concentration (IC50) in assay [1] is 8.4 µM. Besides, the minimal effective dose in the assay on mice was found to be 30 mg/kg. Take `CCCCCCCCc1ccc(-c2c(C)[nH]c(=O)n2C)cc1` [compound 11]: in assay [1], the half-inhibitory concentration (IC50) turned out to be 19.4 µM. Also, the minimal effective dose with mice worked out at 30 mg/kg. Regarding `CCCCCCCCCCCCCCc1ccc(-c2c(C)[nH]c(=O)n2C)cc1` [compound 14], in assay [1], the 50% inhibitory concentration (IC50) stood at 43.8 µM. Moreover, the minimal effective dose in the assay with mice is 30 mg/kg. Regarding `Cc1[nH]c(=O)n(C)c1-c1ccc(OC(C)C)cc1` [compound 17], the concentration for half-maximal inhibition (IC50) in assay [1] was found to be 20.4 µM. On to `CCCCOc1ccc(-c2c(C)[nH]c(=O)n2C)cc1` [compound 18], for which, in assay [1], the IC50 came out at 5.1 µM. In the assay with mice, the minimal effective dose was 0.3 mg/kg. Regarding `CCCCCOc1ccc(-c2c(C)[nH]c(=O)n2C)cc1` [compound 19], the concentration for half-maximal inhibition (IC50) in assay [1] was 4.5 µM.

`CCCCCCCOc1ccc(-c2c(C)[nH]c(=O)n2C)cc1` [compound 22]: in assay [1], the half-inhibitory concentration (IC50) turned out to be 5.7 µM. Turning to `CCCCCCCCOc1ccc(-c2c(C)[nH]c(=O)n2C)cc1` [compound 23], in assay [1], the IC50 worked out at 4 µM. The minimal effective dose with mice is 30 mg/kg. As to `CCCCCCCCCOc1ccc(-c2c(C)[nH]c(=O)n2C)cc1` [compound 24], in assay [1], the IC50 came out at 4.8 µM. Regarding `CCCCCCCCCCOc1ccc(-c2c(C)[nH]c(=O)n2C)cc1` [compound 25], the half-maximal inhibitory concentration (IC50) in assay [1] came to 6.9 µM. Also, the minimal effective dose in the assay on mice was 0.1 mg/kg. As for `CCCCCCCCCCCCOc1ccc(-c2c(C)[nH]c(=O)n2C)cc1` [compound 26], the concentration for half-maximal inhibition (IC50) in assay [1] turned out to be 9.7 µM. Further, the minimal effective dose with mice is 0.1 mg/kg. Take `CCCCCCCCCCCCCCCCCCOc1ccc(-c2c(C)[nH]c(=O)n2C)cc1` [compound 27]: the minimal effective dose with mice is 0.1 mg/kg. On to `Cc1[nH]c(=O)n(C)c1-c1ccc(Oc2ccccc2)cc1` [compound 28], for which the half-inhibitory concentration (IC50) in assay [1] is 8.1 µM. Same read-out and setting: the same measure for `Cc1[nH]c(=O)n(C)c1-c1ccc(OCc2ccccc2)cc1` [compound 29]: 6.7 µM. Consider `Cc1[nH]c(=O)n(C)c1-c1ccc(OCCCc2ccccc2)cc1` [compound 30], for which the IC50 in assay [1] was determined as 5.9 µM. Also, in the assay with mice, the minimal effective dose was determined as 30 mg/kg. For `CSc1ccc(-c2c(C)[nH]c(=O)n2C)cc1` [compound 31], the half-inhibitory concentration (IC50) in assay [1] turned out to be 39.4 µM. With `CCCCSc1ccc(-c2c(C)[nH]c(=O)n2C)cc1` [compound 32], the IC50 in assay [1] amounted to 11.3 µM. Also, the minimal effective dose with mice came out at 3 mg/kg. In the case of `CCCc1ccc(-c2c(C)[nH]c(=O)n2CC)cc1` [compound 54], the IC50 in assay [1] is 22.6 µM. As to `CCCCc1ccc(-c2c(C)[nH]c(=O)n2CC)cc1` [compound 55], in assay [1], the IC50 came to 24.5 µM. Still for that read-out and setting: with `CCCCc1ccc(-c2c(CC)[nH]c(=O)n2CC)cc1` [compound 56] the figure was 13.9 µM. For the compound `CCCCOc1ccc(-c2c(C)[nH]c(=O)n2CC)cc1` [compound 58], the IC50 in assay [1] amounted to 14.5 µM. For the same compound, the minimal effective dose in the assay with mice worked out at 0.3 mg/kg.

On to `CCn1c(-c2ccc(OC(C)C)cc2)c(C)[nH]c1=O` [compound 60], for which the IC50 in assay [1] worked out at 39.1 µM.

For the compound `CCCCSc1ccc(-c2c(C)[nH]c(=O)n2CC)cc1` [compound 61], the IC50 in assay [1] was 12.9 µM.

For the compound `CCCCc1ccc(-c2c(C)[nH]c(=O)n2C(C)C)cc1` [compound 78], the 50% inhibitory concentration (IC50) in assay [1] turned out to be 10.7 µM. In the assay on mice, the minimal effective dose amounted to 0.3 mg/kg. As for `CCCCOc1ccccc1-c1c(C)[nH]c(=O)n1C(C)C` [compound 80], the IC50 in assay [1] is 25.5 µM. Still for that read-out and setting: the same measure for `Cc1[nH]c(=O)n(C2CCCCC2)c1-c1ccc(OCCC(C)C)cc1` [compound 94, 1-Cyclohexyl-5-(4'-isoamyloxyphenyl)-4-methyl-4-imidazolin-2-one]: 7.2 µM. Same read-out and setting: the same measure for `CCCCCCCCc1ccc(-c2c(C)[nH]c(=O)n2C2CCCCC2)cc1` [compound 101]: 10.3 µM; for `CCCCCCCCCCc1ccc(-c2c(C)[nH]c(=O)n2C2CCCCC2)cc1` [compound 102]: 27 µM. For `CCCc1ccc(-c2c(C)[nH]c(=O)n2C2CCCCC2)cc1` [compound 106], the IC50 in assay [1] was determined as 13.9 µM. For the same compound, the minimal effective dose with mice stood at 30 mg/kg. Regarding `Cc1[nH]c(=O)n(C2CCCCC2)c1-c1cccc(OC(C)C)c1` [compound 107], the 50% inhibitory concentration (IC50) in assay [1] came out at 10.4 µM. On to `Cc1[nH]c(=O)n(C2CCCCC2)c1-c1ccccc1OC(C)C` [compound 108], for which, in assay [1], the IC50 was 21.5 µM. As for `Cc1[nH]c(=O)n(C2CCCCC2)c1-c1ccc(OC(C)C)cc1` [compound 109], the half-maximal inhibitory concentration (IC50) in assay [1] worked out at 13 µM. In the assay on mice, the minimal effective dose worked out at 0.1 mg/kg. `CCCCOc1cccc(-c2c(C)[nH]c(=O)n2C2CCCCC2)c1` [compound 110]: in assay [1], the half-inhibitory concentration (IC50) amounted to 9 µM. Take `CCCCCOc1ccc(-c2c(C)[nH]c(=O)n2C2CCCCC2)cc1` [compound 112]: the IC50 in assay [1] was 9.1 µM. Turning to `Cc1[nH]c(=O)n(Cc2ccccc2)c1-c1ccc(C(C)(C)C)cc1` [compound 138], the half-inhibitory concentration (IC50) in assay [1] stood at 8.6 µM.

On to `CCCCCCc1ccc(-c2c(C)[nH]c(=O)n2Cc2ccccc2)cc1` [compound 139], for which the concentration for half-maximal inhibition (IC50) in assay [1] worked out at 8.2 µM. Turning to `Cc1[nH]c(=O)n(Cc2ccccc2)c1-c1ccc(C2CCCCC2)cc1` [compound 140], the IC50 in assay [1] came out at 35.3 µM.
